Marks after values point to notes of the source that are not given here.
What was measured:
[1] = target: T1, AMPLITAQ DNA polymerase (Taq polymerase) (Thermus aquaticus, UniProt P19821); assay: PCR amplification of PERV protease fragment (327 bp) in presence of dye/surfactant; product on agarose gel or quantitated with Agilent 2100 Bioanalyzer; format: biochemical
T1 construct: purchased Applied Biosystems, Foster City, Calif
Procedure: Typically, a fresh stock solution of 5 milligrams (mg) of a water-insoluble near-infrared dye (NIR dye) was dissolved in 50 microliters (μL) of dimethylsulfoxide (DMSO) and brought up in water to a final volume of 1 milliliter (mL). This was then diluted out to various concentrations of dye. The diluted dye (typically 0.2 mg/mL) was then added to a surfactant solution (typically 4 wt-%) to form a complex. The complex was added to a PCR reaction.
PCR reactions were set up for a conserved sequence (327 bp) in the protease region of the genome of porcine endogenous retrovirus using a plasmid containing the PERV protease fragment, a forward primer and a reverse primer designed using a primer express program from Applied Biosystems, and AMPLITAQ DNA polymerase cocktail (commercially available from Applied Biosystems, Foster City, Calif.) and cycled in a thermocycler (9700, Applied Biosystems). The PCR reactions were typically carried out in 25-μL volumes. The NIR dye/surfactant mixture was added to the PCR cocktail to give the desired concentration of dye and surfactant in a total volume of 25 μL. A typical PCR cocktail contains 10x buffer, 2.5 μL; dNTPs, 2.0 μL (200 μM of each); forward primer, 0.5 μL (200 nM); reverse primer, 0.5 μL (200 nM); template DNA, 1.0 (1 ng/μL); Amplitaq, 0.25 μL (1.25 units); sterile water, 18.25 μL.
The products of PCR reactions were run on 1% agarose gel containing ethidium bromide and visualized using an ALPHA IMAGER (Alpha Innotech Corp., San Leandro, Calif.). […] However, a higher concentration of dye (0.1 mg/mL) for effective heating was needed. Thus, for all further PCR experiments, a dye concentration of 0.1 mg/mL or higher was used. […] Taq polymerase was tested from different manufacturers (Promega Corp., Madison, Wis.; Roche Biochemicals, Indianapolis, Ind.; Eppendorf, Scientific Inc., Westbury, N.Y.; Sigma, St. Louis, Mo.) and all the Taq polymerases were inhibited by 785 WS and SDA 8080.
In order to find out the optimum concentration of surfactant for PCR with NIR dye (785 WS and SDA 8080), the surfactant concentration in PCR reaction was varied from 0.1 wt-% to 4 wt-%. The PCR product formed was quantitated using DNA 7500 Labchip kit in Agilent 2100 Bioanalyzer (Agilent Inc, Paloalto, Calif.). The results shown in Table 3 indicate that increasing the concentration of surfactant relative to dye assists in the formation of PCR product.
A variety of dyes (NIR dyes such as IR782, IR768, SDA 2141, SDA8327, IR 830 WS, fluorescent dyes like oligreen and visible dyes like dichlorophenol, indophenol, saffranin, crystal violet, and commercially available food coloring) at typical concentrations of 0.1 or 0.2 mg/mL were allowed to interact with 4 wt-% PLURONIC F127 and each mixture was added to the PCR cocktail. The reaction was set up to amplify PERV protease fragment as described in Example 2 and the products of the reaction were analyzed by agarose gel electrophoresis.

[2] = target: Taq polymerase (Thermus aquaticus, UniProt P19821); assay: Quantitative PCR using TaqMan probes or Sybr green; format: biochemical; conditions: with SDA 8080 0.2 mg/mL or 785 WS 0.1 mg/mL, both cases
Chain of Taq polymerase (P19821 whole entry): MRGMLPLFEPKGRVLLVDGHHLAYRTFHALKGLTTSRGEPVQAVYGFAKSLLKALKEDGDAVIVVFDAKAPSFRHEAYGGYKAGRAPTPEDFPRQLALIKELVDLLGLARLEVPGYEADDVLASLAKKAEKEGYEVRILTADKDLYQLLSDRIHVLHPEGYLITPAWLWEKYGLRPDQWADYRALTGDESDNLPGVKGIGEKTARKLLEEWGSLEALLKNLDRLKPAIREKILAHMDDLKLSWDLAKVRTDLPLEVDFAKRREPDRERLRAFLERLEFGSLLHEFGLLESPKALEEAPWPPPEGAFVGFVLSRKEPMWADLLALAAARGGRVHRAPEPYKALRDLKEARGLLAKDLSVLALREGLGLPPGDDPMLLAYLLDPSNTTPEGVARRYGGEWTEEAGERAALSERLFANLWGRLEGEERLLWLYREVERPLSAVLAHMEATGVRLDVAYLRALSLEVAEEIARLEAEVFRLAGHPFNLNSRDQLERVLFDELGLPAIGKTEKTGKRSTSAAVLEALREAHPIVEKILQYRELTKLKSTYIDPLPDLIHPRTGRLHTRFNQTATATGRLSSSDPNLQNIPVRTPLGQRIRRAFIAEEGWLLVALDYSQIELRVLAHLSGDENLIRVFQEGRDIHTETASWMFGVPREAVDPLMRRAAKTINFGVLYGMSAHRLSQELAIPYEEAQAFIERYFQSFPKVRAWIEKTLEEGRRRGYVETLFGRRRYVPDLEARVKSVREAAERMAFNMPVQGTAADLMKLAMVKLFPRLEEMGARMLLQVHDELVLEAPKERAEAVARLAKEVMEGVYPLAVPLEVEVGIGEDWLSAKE

[3] = target: T2, T4 DNA ligase (Enterobacteria phage T4, UniProt P00970); assay: DNA ligation reaction, read out by E. coli DH10B transformant colonies and by PCR of ligated products; format: biochemical; conditions: 4 wt-% PLURONIC for 785 WS; 4 wt-% TWEEN-20 for SDA 8080; similar number of colonies as control
T2 construct: purchased Life Technologies, Inc, Gaithesburg, Md
T2 sequence (P00970 1-487): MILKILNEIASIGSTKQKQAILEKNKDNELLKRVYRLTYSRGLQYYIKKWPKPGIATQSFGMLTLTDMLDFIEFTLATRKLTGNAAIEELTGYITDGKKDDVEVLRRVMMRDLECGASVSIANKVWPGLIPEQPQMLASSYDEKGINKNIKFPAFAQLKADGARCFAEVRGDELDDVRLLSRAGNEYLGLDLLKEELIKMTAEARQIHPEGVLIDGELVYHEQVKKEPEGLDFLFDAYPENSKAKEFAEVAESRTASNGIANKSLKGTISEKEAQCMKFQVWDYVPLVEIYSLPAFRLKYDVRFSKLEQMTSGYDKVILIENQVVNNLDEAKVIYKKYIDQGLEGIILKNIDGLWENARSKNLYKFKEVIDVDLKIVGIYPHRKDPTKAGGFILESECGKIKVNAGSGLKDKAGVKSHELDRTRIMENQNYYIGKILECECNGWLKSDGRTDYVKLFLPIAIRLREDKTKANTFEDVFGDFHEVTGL
Procedure: DNA ligation reactions were set up using T4 DNA ligase (Life Technologies, Inc, Gaithesburg, Md.) using a linearized plasmid template (pET21a, Novagen, Madison, Wis.) and a DNA insert. The reagents were used according to manufacturer's instructions. Escherichia coli DH10B competent cells were transformed with the ligated products and transformed cells were plated on Clondisc (Clontech, Palo Alto, Calif.) with appropriate antibiotic (ampicillin at 50 μg/mL). After incubation of plates at 37° C. for 16 hours to 18 hours, the resulting colonies were counted and analysed for plasmid by miniprep and restriction digest. […] In addition, all of the plasmids isolated from these plates contained the same insert as verified by restriction digest and DNA sequencing.
In addition to transformation and plating with the ligation mix, the ligated products were used as DNA template in a PCR reaction containing primers flanking the insert DNA on the plasmid template (T7 promoter and T7 terminator primers, Novagen).

[4] = Laser stability / photobleaching of dye solution on repeated laser exposure; format: physicochemical; conditions: SDA 8080 (0.2 mg/mL), surfactant 20 wt %; 25 exposures
Procedure: An 813-nm diode laser source at 1.2W (1.9A) (Opto Power Corp., Tucson, Ariz. ) was used to heat a 10μL volume of near-IR dye at a concentration (0.1 mg/mL for 785 WS, 0.2 mg/iL for SDA 8080) to yield a 35° C. rise in temperature. The laser was manually turned on long enough for the temperature in a 10-μL well to increase by 35° C. (1-3 seconds) and was manually turned off when that level was attained. The temperature data was obtained using a thermocouple in the well, and the transmittance data was obtained via a power meter whose signals were digitized and graphically interpreted.
In another experiment, the 10 μL well was used to see if the dye/surfactant mixture could withstand laser cycling over a period of 30 cycles. The laser power was systematically varied from 60° C. to 94° C., 30 times.
Unlike in Example 8, some dyes and dye/surfactant complexes undergo photodegradation when exposed to laser beam. […] Specifically, in the case of 785 WS/BRIJ-97, the addition of ascorbic acid (typically 5 mg/mL) helped reduce the amount of photobleaching from 100% to 20% after 30 cycles. In some circumstances, rapid/controlled photodegradation may be desired. […] This would allow DNA tags (fluorescent or vis/IR) to be monitored at the end of the PCR reaction.
Vitamin E-TPGS has both surfactant as well as antioxidant properties.

T1 sequence (P19821 whole entry, the tested form may be a part): as the sequence (P19821 whole entry) above

With `CCCCCCCCCCCC(=O)OCCOCCOCCOCCOCCOCCOCCOCCOCCOCCOCCOCCOCCOCCOCCOCCOCCOCCOCCOCCOCC(OCCOCCOCCOCCOCCOCCOCCOCCOCCOCCOCCOCCOCCOCCOCCOCCOCCOCCOCCOCCO)C1OCC(OCCOCCOCCOCCOCCOCCOCCOCCOCCOCCOCCOCCOCCOCCOCCOCCOCCOCCOCCOCCO)C1OCCOCCOCCOCCOCCOCCOCCOCCOCCOCCOCCOCCOCCOCCOCCOCCOCCOCCOCCOCCO` (stereo not shown) [TWEEN-20, Polyoxyethylene (20) sorbitan monolaurate] the “PCR Product” value ([1]; 785 WS 0.1 mg/mL, surfactant 0.1 wt %) was 0 ng/µL, the “PCR Product” value ([1]; 785 WS 0.1 mg/mL, surfactant 0.5 wt %) was 12.7 ng/µL and the “PCR Product” value ([1]; 785 WS 0.1 mg/mL, surfactant 1 wt %) was 19 ng/µL. For the same molecule, the “PCR Product” value ([1]; 785 WS 0.1 mg/mL, surfactant 2 wt %) was 23.7 ng/µL, the “PCR Product” value ([1]; 785 WS 0.1 mg/mL, surfactant 4 wt %) was 24 ng/µL and the “PCR Product” value ([1]; SDA 8080 0.2 mg/mL, surfactant 0.1 wt %) was 27 ng/µL. The “PCR Product” value ([1]; SDA 8080 0.2 mg/mL, surfactant 0.5 wt %) was 29 ng/µL, the “PCR Product” value ([1]; SDA 8080 0.2 mg/mL, surfactant 1 wt %) was 31 ng/µL and the “PCR Product” value ([1]; SDA 8080 0.2 mg/mL, surfactant 2 wt %) was 22 ng/µL. For the same molecule, the “PCR Product” value ([1]; SDA 8080 0.2 mg/mL, surfactant 4 wt %) was 19 ng/µL, the “effect of addition of surfactant on dye-inhibited Taq polymerase” value ([1]; Taq polymerases inhibited by 785 WS and SDA 8080) was “restored the activity of the enzyme” and the “PCR Product” value ([1]; surfactant 4 wt %, 785 WS 0 mg/mL (no dye), data from a different experiment under identical PCR conditions) was 28* ng/μL. For the same molecule, the “PCR Product” value ([1]; surfactant 4 wt %, SDA 8080 0 mg/mL (no dye), data from a different experiment under identical PCR conditions) was 28* ng/μL, the “effect of addition of surfactant on dye-inhibited quantitative PCR assay” value [2] was “restored the activity of the assay” and the “effect of surfactant on dye-inhibited ligase activity (colonies)” value [3] was “restored the activity of ligase”. The “Laser Stability” value [4] was “+ (less than a 20% degradation in dye absorbance over a period of 25 exposures)”.

From US20030017567A1, “Biological sample processing methods and compositions that include surfactants” (3M Innovative Properties Company, priority 2001, published 2003)
